The text below walks through data of patent US10544112B2, “Identification of ebsulfur analogues with broad-spectrum antifungal activity” (priority 2017, dated 2020).

In brackets after ≈: the same amount, converted by molar mass.

One series has as its system J774A.1 cell line. The following applies: for cell death: J774, 10 μg/mL, 24 h. The method, then:
The human embryonic kidney cell line HEK-293 (ATCC CRL-1573) and the murine macrophage cell line J774A.1 (ATCC TIB-67) were kindly provided by Dr. Matthew S. Gentry and Dr. David J. Feola (University of Kentucky, Lexington, Ky., USA), respectively. The HEK-293 cell line was grown in Dulbecco's Modified Eagle's Medium (DMEM) (ATCC, Manassas, Va., USA) with 10% fetal bovine serum (FBS) (ATCC, Manassas, Va., USA) and 1% Pen/Strep (ATCC, Manassas, Va., USA). The J774A.1 cell line was grown under the same conditions, except that the medium used was a different type of DMEM (catalog #30-2002, ATCC, Manassas, Va., USA). The HEK-293 cell line was passaged by trypsinization with 0.05%-trypsin-0.53 mM EDTA (ATCC, Manassas, Va., USA). The J774A.1 cell line was passaged mechanically by cell scrapers (ATCC, Manassas, Va., USA). Cell confluency was observed by using a Nikon Eclipse TS100 microscope (Minato, Tokyo, Japan).
Mammalian cytotoxicity assays were performed as previously described with minor modifications (FIG. 4). The HEK-293 and J774A.1 cell lines were grown in various Dulbecco's Modified Eagle's Medium (DMEM) with 10% fetal bovine serum (FBS) and 1% Pen/Strep at 37° C. with 5% CO2. The confluent cells were either trypsinized with 0.05%-trypsin-0.53 mM EDTA (HEK-293 cell line) or mechanically removed by cell scrapers (J774A.1 cell line). […] The cells were incubated with tested compounds for another 24 h at 37° C. with 5% CO2. Cell survival was assessed by resazurin assay. Each well was treated with resazurin (10 μL of a 25 mg/L solution) for 6 h. […] Dead cells remain purple/blue. The percentage of survival rate was calculated by using the following formula: [(test value)/(control value)×100].

Series [1] concerns C. albicans ATCC MYA-2310(S) (strain E). Briefly: Antifungal MIC determination (CLSI M27-A3, 96-well). In kind it is cell-based, Candida albicans. The following applies: strain E; compounds 1-4n and AmB; 48 h, RPMI 1640. In outline:
(§1)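 Yeasts were precultured in potato dextrose broth, then diluted in RPMI 1640 (pH 7.0, 0.165 M MOPS) to a final 5×10^3 CFU/mL. Compounds were serially diluted two-fold to 12.5-0.02 μg/mL. Plates were incubated 48 h at 35° C.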

Series [2] deals with C. albicans ATCC MYA-2876(S) (strain C). The series is described as above. It is filed as cell-based, Candida albicans. The following applies: strain C; compounds 1-4n and AmB; 48 h, RPMI 1640. In outline:
as §1

Series [3] concerns C. albicans ATCC 64124 (strain B). Nature of the series: microbe, parasite or virus in culture. Conditions: strain B; compounds 1-4n and AmB; 48 h, RPMI 1640. It is filed as cell-based, Candida albicans. In outline:
as §1

Series [4] has as its system C. albicans ATCC 90819(R) (strain D). Briefly: microbe, parasite or virus in culture. It is filed as cell-based, Candida albicans. The following applies: strain D; compounds 1-4n and AmB; 48 h, RPMI 1640. In outline: as §1
The subject of series [5] is C. albicans ATCC MYA-1003(R) (strain G). Nature of the series: microbe, parasite or virus in culture. It is filed as cell-based, Candida albicans. The following applies: strain G; compounds 1-4n and AmB; 48 h, RPMI 1640. In outline:
as §1

The subject of series [6] is C. albicans ATCC MYA-1237(R) (strain F). Briefly: microbe, parasite or virus in culture. The following applies: strain F; compounds 1-4n and AmB; 48 h, RPMI 1640. In kind it is cell-based, Candida albicans. The gist of the method:
as §1

For the compound `CCCCCCn1sc2ccccc2c1=O` [Compound 3b], in the series with J774A.1 cell line, the cell death result was “approximately 50%”. Also, the MIC-0 in series [1] is 0.78 µg/mL (≈ 3.31 µM); in series [2], 0.78 µg/mL (≈ 3.31 µM); in series [3] it was 1.56 µg/mL (≈ 6.63 µM); in series [4], 1.56 µg/mL (≈ 6.63 µM); in series [5] it was 0.78 µg/mL (≈ 3.31 µM); in series [6], 1.56 µg/mL (≈ 6.63 µM).
Consider `CC(C)(C)n1sc2ccccc2c1=O` [Compound 3g], for which the “concentration without any toxicity” value in the series on J774A.1 cell line (J774, 24 h) is “up to 5 μg/mL”. Besides, the MIC-0 worked out at 1.56 µg/mL (≈ 7.53 µM) in series [1]; 3.13 µg/mL (≈ 15.1 µM) in series [2]; 1.56 µg/mL (≈ 7.53 µM) in series [3]; 1.56 µg/mL (≈ 7.53 µM) in series [4]; 1.56 µg/mL (≈ 7.53 µM) in series [5]; 1.56 µg/mL (≈ 7.53 µM) in series [6].
For the compound `CCCCCn1sc2ccccc2c1=O` [Compound 3a], in the series on J774A.1 cell line, the cell death entry is “approximately 50%”. In addition, the MIC-0 in series [1] was 0.39 µg/mL (≈ 1.76 µM); in series [2] it was 0.78 µg/mL (≈ 3.52 µM); in series [3] it was 0.39 µg/mL (≈ 1.76 µM); in series [4], 1.56 µg/mL (≈ 7.05 µM); in series [5], 0.78 µg/mL (≈ 3.52 µM); in series [6], 0.78 µg/mL (≈ 3.52 µM).
